From ChEMBL document CHEMBL1132484, “New alpha-substituted succinate-based hydroxamic acids as TNFalpha convertase inhibitors” (J Med Chem, 1999) come the findings set out here.

Each structure is given as a SMILES string.

Assay [1] has as its target T1, Disintegrin and metalloproteinase domain-containing protein 17 (Homo sapiens, UniProt P78536). Briefly: Inhibitory activity against Tumor necrosis factor alpha-converting enzyme (TACE) in blood. It counts as tissue-based.
The target in assay [2] is T1, Disintegrin and metalloproteinase domain-containing protein 17. The assay can be described thus: Inhibition of TNF(tumor necrosis factor) in human blood. It counts as functional.

T1 sequence (P78536 whole entry, the tested form may be a part): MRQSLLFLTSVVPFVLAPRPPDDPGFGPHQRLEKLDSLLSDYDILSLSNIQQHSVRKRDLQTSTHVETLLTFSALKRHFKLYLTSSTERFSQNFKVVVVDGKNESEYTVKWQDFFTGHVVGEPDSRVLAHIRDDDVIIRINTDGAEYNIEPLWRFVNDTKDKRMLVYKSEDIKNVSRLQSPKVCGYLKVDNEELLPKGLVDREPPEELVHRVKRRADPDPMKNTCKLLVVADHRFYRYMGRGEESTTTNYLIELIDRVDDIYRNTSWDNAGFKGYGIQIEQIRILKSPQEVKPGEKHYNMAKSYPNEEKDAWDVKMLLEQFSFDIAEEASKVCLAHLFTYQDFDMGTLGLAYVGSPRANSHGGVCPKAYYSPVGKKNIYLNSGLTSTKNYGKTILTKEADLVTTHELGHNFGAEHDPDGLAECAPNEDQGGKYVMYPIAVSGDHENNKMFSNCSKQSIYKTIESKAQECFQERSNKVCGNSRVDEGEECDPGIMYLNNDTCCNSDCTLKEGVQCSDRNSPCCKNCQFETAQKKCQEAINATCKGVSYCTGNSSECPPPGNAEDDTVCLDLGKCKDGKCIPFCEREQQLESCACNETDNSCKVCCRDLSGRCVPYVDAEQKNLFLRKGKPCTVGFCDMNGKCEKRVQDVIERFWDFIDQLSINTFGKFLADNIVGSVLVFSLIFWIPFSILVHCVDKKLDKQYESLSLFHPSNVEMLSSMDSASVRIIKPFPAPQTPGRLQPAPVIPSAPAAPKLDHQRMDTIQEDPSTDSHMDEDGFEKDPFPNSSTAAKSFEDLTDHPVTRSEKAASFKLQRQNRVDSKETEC

What is called IC50 is the concentration that gives 50% inhibition. Low readings indicate inhibition by little substance, high ones a need for much substance. Turning to `CNC(=O)[C@H](Cc1ccccc1)NC(=O)[C@H](CC(C)C)[C@H](CSc1ccccc1)C(=O)NO`, the half-inhibitory concentration (IC50) in assay [1] was 1.8 nM; in assay [2], 5300 nM.
In assay [1], `CNC(=O)[C@@H](NC(=O)[C@H](CC(C)C)[C@H](NS(=O)(=O)c1c(C(C)C)cc(C(C)C)cc1C(C)C)C(=O)NO)C(C)(C)C` yielded a half-maximal inhibitory concentration (IC50) of 13 nM.
Molecule `CNC(=O)[C@@H](NC(=O)[C@H](CC(C)C)[C@H](NC(=O)c1cccnc1)C(=O)NO)C(C)(C)C` showed an IC50 in assay [1] of 22 nM.
For `CNC(=O)[C@@H](NC(=O)[C@H](CC(C)C)[C@H](OCc1cc2ccccc2n(C)c1=O)C(=O)NO)C(C)(C)C`, the IC50 in assay [1] came out at 0.44 nM; in assay [2] it was 2350 nM.
`CCCN([C@H](C(=O)NO)[C@@H](CC(C)C)C(=O)N[C@H](C(=O)NC)C(C)(C)C)S(=O)(=O)c1cccc2cccnc12` displayed a concentration for half-maximal inhibition (IC50) in assay [1] of 10 nM.
Turning to `CNC(=O)[C@@H](NC(=O)[C@H](CC(C)C)[C@H](NC(=O)c1ccc2ccccc2c1)C(=O)NO)C(C)(C)C`, the IC50 was 3.3 nM in assay [1] and above 20000 nM in assay [2].
With `CNC(=O)[C@@H](NC(=O)[C@H](CC(C)C)[C@H](OCc1cccc2cccnc12)C(=O)NO)C(C)(C)C`, the half-maximal inhibitory concentration (IC50) was found to be 0.4 nM in assay [1] and 8200 nM in assay [2].
In the same order, the values of `CNC(=O)[C@@H](NC(=O)[C@H](CC(C)C)[C@H](NS(=O)(=O)c1ccc2c(c1)CC(=O)N2)C(=O)NO)C(C)(C)C` are 2.8 nM and 1500 nM.
For `CNC(=O)[C@@H](NC(=O)[C@H](CC(C)C)[C@H](NC(=O)c1ccc2ncccc2c1)C(=O)NO)C(C)(C)C`, the midpoint of inhibition in assay [1], the IC50, lay at 9.5 nM.
As for `CNC(=O)[C@@H](NC(=O)[C@H](CC(C)C)[C@H](NS(=O)(=O)c1ccc2ccccc2c1)C(=O)NO)C(C)(C)C`, the half-maximal inhibitory concentration (IC50) in assay [1] stood at 0.66 nM; in assay [2] it was 1200 nM.
On to `CNC(=O)[C@@H](NC(=O)[C@H](CC(C)C)[C@H](NS(=O)(=O)/C=C/c1ccccc1)C(=O)NO)C(C)(C)C`, for which the half-inhibitory concentration (IC50) in assay [1] stood at 0.54 nM; in assay [2], 770 nM.
Regarding `CNC(=O)[C@@H](NC(=O)[C@H](CC(C)C)[C@H](Sc1cc(Cl)cc(Cl)c1)C(=O)NO)C(C)(C)C`, the half-inhibitory concentration (IC50) in assay [1] is 0.42 nM; in assay [2], 4900 nM.
In the same order, the values of `CNC(=O)[C@@H](NC(=O)[C@H](CC(C)C)[C@H](NS(=O)(=O)CCc1ccncc1)C(=O)NO)C(C)(C)C` are 1.3 nM and 700 nM.
The matching figures for `CNC(=O)[C@@H](NC(=O)[C@H](CC(C)C)[C@@H](C(=O)NO)N1CCCC1)C(C)(C)C`: 2.8 nM and 6100 nM.
In the same order, the values of `CNC(=O)[C@@H](NC(=O)[C@H](CC(C)C)[C@H](NS(=O)(=O)c1cccc2ccccc12)C(=O)NO)C(C)(C)C` are 1.2 nM and 3100 nM.
On to `CNC(=O)[C@@H](NC(=O)[C@H](CC(C)C)[C@@H](Sc1ccccc1)C(=O)NO)C(C)(C)C`, for which, in assay [1], the IC50 was determined as 1 nM.
`CNC(=O)[C@@H](NC(=O)[C@H](CC(C)C)[C@H](Sc1ccccc1)C(=O)NO)C(C)(C)C` gave a half-maximal inhibitory concentration (IC50) in assay [1] of 188 nM.
Take `CNC(=O)[C@@H](NC(=O)[C@H](CC(C)C)[C@H](NS(=O)(=O)c1ccc(C(=O)O)cc1)C(=O)NO)C(C)(C)C`: the concentration for half-maximal inhibition (IC50) in assay [1] came out at 3.2 nM; in assay [2], 4400 nM.
Turning to `CCS[C@H](C(=O)NO)[C@@H](CC(C)C)C(=O)N[C@H](C(=O)NC)C(C)(C)C`, the half-inhibitory concentration (IC50) came out at 1.5 nM in assay [1] and 5600 nM in assay [2].
As to `CNC(=O)[C@@H](NC(=O)[C@H](CC(C)C)[C@H](NS(=O)(=O)c1cccnc1)C(=O)NO)C(C)(C)C`, the IC50 in assay [1] is 2.1 nM; in assay [2] it was 3800 nM.
In the same order, the values of `CNC(=O)[C@@H](NC(=O)[C@H](CC(C)C)[C@H](Sc1ccc2c(c1)CCC(=O)N2C)C(=O)NO)C(C)(C)C` are 1.4 nM and 6600 nM.
In the case of `CNC(=O)[C@@H](NC(=O)[C@H](CC(C)C)[C@H](OCc1ccc2oc(=O)ccc2c1)C(=O)NO)C(C)(C)C`, the values for the IC50 in assay [1] and in assay [2] were 0.79 nM and 3600 nM, respectively.
With `CNC(=O)[C@@H](NC(=O)[C@H](CC(C)C)[C@H](NS(C)(=O)=O)C(=O)NO)C(C)(C)C`, the IC50 in assay [1] amounted to 2.2 nM; in assay [2] it was 1600 nM.
`CNC(=O)[C@@H](NC(=O)[C@H](CC(C)C)[C@H](Sc1ccc(OC)c(OC)c1)C(=O)NO)C(C)(C)C` showed an IC50 in assay [1] of 1.2 nM.
Take `CNC(=O)[C@@H](NC(=O)[C@H](CC(C)C)[C@H](NS(=O)(=O)c1cccc2c(=O)[nH]cnc12)C(=O)NO)C(C)(C)C`: the half-inhibitory concentration (IC50) is 3.4 nM in assay [1] and 4900 nM in assay [2].
As for `CNC(=O)[C@@H](NC(=O)[C@H](CC(C)C)[C@H](OCc1cccc2nccnc12)C(=O)NO)C(C)(C)C`, the half-inhibitory concentration (IC50) in assay [1] was 1.1 nM; in assay [2], 7600 nM.
Regarding `CNC(=O)[C@@H](NC(=O)[C@H](CC(C)C)[C@H](Sc1ccc(C#N)cc1)C(=O)NO)C(C)(C)C`, the figures for the IC50 in assay [1] and in assay [2] were 0.63 nM and 3300 nM, respectively.
The matching figures for `CNC(=O)[C@@H](NC(=O)[C@H](CC(C)C)[C@H](NS(=O)(=O)c1ccc2c(c1)CCC(=O)N2C)C(=O)NO)C(C)(C)C`: 2.9 nM and 3000 nM.
As to `CNC(=O)[C@@H](NC(=O)[C@H](CC(C)C)[C@H](Sc1cccc(C(C)(C)C#N)c1)C(=O)NO)C(C)(C)C`, the IC50 is 1.6 nM in assay [1] and 2800 nM in assay [2].
For the molecule `CNC(=O)[C@@H](NC(=O)[C@H](CC(C)C)[C@H](OC)C(=O)NO)C(C)(C)C`, the values for the IC50 in assay [1] and in assay [2] were 1.5 nM and 5000 nM, respectively.
With `CNC(=O)[C@@H](NC(=O)[C@H](CC(C)C)[C@H](NCCCSC)C(=O)NO)C(C)(C)C`, the IC50 in assay [1] stood at 1.3 nM; in assay [2] it was 4600 nM.
`CNC(=O)[C@@H](NC(=O)[C@H](CC(C)C)[C@H](Sc1ccc(S(C)(=O)=O)cc1)C(=O)NO)C(C)(C)C`: the IC50 in assay [1] came out at 1.25 nM; in assay [2], 2100 nM.
`CNC(=O)[C@@H](NC(=O)[C@H](CC(C)C)[C@H](NCc1ccc2ccccc2n1)C(=O)NO)C(C)(C)C`: the IC50 turned out to be 1 nM in assay [1] and 5700 nM in assay [2].
In the same order, the values of `CNC(=O)[C@@H](NC(=O)[C@H](CC(C)C)[C@H](NS(=O)(=O)c1cccs1)C(=O)NO)C(C)(C)C` are 1.5 nM and 2800 nM.
In the same order, the values of `CNC(=O)[C@@H](NC(=O)[C@H](CC(C)C)[C@H](Sc1ccc(F)cc1Cl)C(=O)NO)C(C)(C)C` are 1.1 nM and 11000 nM.
The molecule `CNC(=O)[C@@H](NC(=O)C(CC(C)C)C(NS(=O)(=O)c1cnc[nH]1)C(=O)NO)C(C)(C)C` (single isomer, unassigned) gave an IC50 in assay [1] of 9 nM.
Same read-out and setting: with `CNC(=O)[C@@H](NC(=O)C(CC(C)C)C(C(=O)NO)N(Cc1ccccc1)S(=O)(=O)c1cccc2cccnc12)C(C)(C)C` (single isomer, unassigned) the figure was 85 nM; with `CNC(=O)[C@@H](NC(=O)C(CC(C)C)C(NC(C)=O)C(=O)NO)C(C)(C)C` (single isomer, unassigned), 13 nM; with `CNC(=O)[C@@H](NC(=O)C(CC(C)C)C(NS(=O)(=O)c1ccc(F)cc1Cl)C(=O)NO)C(C)(C)C` (single isomer, unassigned), 9.7 nM.
Still for that read-out and setting: with `CNC(=O)[C@@H](NC(=O)C(CC(C)C)C(NS(=O)(=O)c1ccccc1C#N)C(=O)NO)C(C)(C)C` (single isomer, unassigned) the figure was 17 nM.
In turn, `CNC(=O)[C@@H](NC(=O)C(CC(C)C)C(NC(=O)c1ccccc1)C(=O)NO)C(C)(C)C` (single isomer, unassigned) displayed an IC50 in assay [1] of 9 nM.
